The record followed here is PubChem BioAssay AID732 (Emory University Molecular Libraries Screening Center, 2007).

Active and inactive are the calls of the source. The rule behind the calls is not given here.

This experiment has as its system in vivo angiogenesis, blood vessel count. The experiment is described as follows: reduction of blood vessel formation in vivo – HTS, in vivo study (AID 732).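 Note: zebrafish embryos dosed at one day post fertilization; 0% = reference inhibitor and 100% = plate mean.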 The note with it: stronger effect = lower value;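 tested at 30 µM in the well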.
Consider `CC1CN(S(=O)(=O)c2cccc3cnccc23)CCN1` (stereo not drawn), for which the vessel count % control was 97.8% (inactive).
To `Cc1ccc(Cl)c(Nc2ccccc2C(=O)O)c1Cl` belongs 90.3% (inactive); to `Oc1[nH]c2c(Cl)cc(Cl)cc2c1C1=Nc2ccc(Br)cc2/C1=N\OCCBr`, 121% (inactive).
Turning to `NCc1cc(=O)[nH]o1`, the vessel count % control is 110% (inactive).
For the compound `CC1=C(C(=O)O)N2C(=O)[C@@H](NC(=O)C(N)c3ccccc3)[C@H]2SC1` (stereo partly drawn), the vessel count % control is 93.6% (inactive).
For `COc1ccc(CN(CCN(C)C)c2ccccn2)cc1`, the vessel count % control is 106% (inactive).
With `O[Si](CCCN1CCCCC1)(c1ccc(F)cc1)C1CCCCC1` (stereo not drawn), the vessel count % control is 107% (inactive).
Regarding `CCCCCCCC/C=C\CCCCCCCC(=O)NCCO`, the vessel count % control is 102% (inactive).
With `C=Cc1c(C)c2cc3[nH]c(cc4nc(cc5nc(cc1[nH]2)C(C)=C5CCC(=O)O)C(CCC(=O)O)=C4C)c(C)c3C=C`, the vessel count % control was 112% (inactive).
Consider `CN(C)CCOC(=O)COc1ccc(Cl)cc1`, for which the vessel count % control is 102% (inactive).
`CN(C)CCOC(c1ccccc1)c1ccccc1`: the vessel count % control is 86.5% (inactive).
Take `C[C@H]1CC2C3CCC4=CC(=O)C=C[C@]4(C)[C@@]3(Cl)[C@@H](O)C[C@]2(C)[C@@]1(O)C(=O)CO` (stereo partly drawn): the vessel count % control is 120% (inactive).
For the compound `O=C(O)c1cc(=O)cc(C(=O)O)[nH]1`, the vessel count % control is 86.1% (inactive).
`O=c1c2ccccc2nc2n1CCc1c-2[nH]c2ccccc12`: the vessel count % control is 64.3% (inactive).
With `Nc1nc(Cl)nc2c1ncn2[C@@H]1O[C@H](CO)[C@H](O)C1O` (stereo partly drawn), the vessel count % control was 107% (inactive).
On to `NC1(C(=O)O)CCc2cc(C(=O)O)ccc21` (stereo not drawn), for which the vessel count % control was 79.6% (inactive).
Consider `C[N+](C)(C)CCCCCCCCCC[N+](C)(C)C`, for which the vessel count % control is 100% (inactive).
The result for `CCn1c(=O)c2[nH]c(-c3ccccc3)nc2n(CC)c1=O` reads 63.2% (inactive); that for `Oc1ccc2c3c1O[C@H]1c4oc5ccccc5c4C[C@@]4(O)C(C2)N(CC2CC2)CCC314` (stereo partly drawn), 93.1% (inactive); that for `CCCCCCCCCC[Si](C)(C)CCC(=O)NC(Cc1ccc(C)cc1)c1ccccc1` (stereo not drawn), 109% (inactive).
The result for `CSc1ccc(C(=O)c2[nH]c(=O)[nH]c2C)cc1` reads 76.7% (inactive); that for `CC(=O)NCCc1c[nH]c2ccccc12`, 103% (inactive).
As to `CC#CCOC(=O)c1c(C)nc2sc3c(c2c1N)CCC(O)C3` (stereo not drawn), the vessel count % control was 116% (inactive).
